Measured values: PMC11062899, “De novo development of small cyclic peptides that are orally bioavailable” (Nature Chemical Biology, 2023)
Several values for one entry are separate records, joined by “and”; a condition that tells them apart may be missing. Equal entries are not always repeated. Where two headings read alike, the source gives them in different places.

Columns and labels:
rat α-thrombin = target: T1, rat α-thrombin (Rattus norvegicus, UniProt P18292); test: Protease inhibition, Ki for rat α-thrombin (fluorogenic substrate Z-Gly-Gly-Arg-AMC); assay type: biochemical; conditions: rat alpha thrombin; for Slope normalized to DMSO (proteolytic substrate cleavage over time): replicates R1-R3
T1 construct: rat α-thrombin (Molecular Innovations) were used at final concentrations of 2 nM and 3 nM; purchased Molecular Innovations
Method in brief: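 Inhibition was measured as AMC fluorescence from 50 μM substrate, monitored for 30 min at 25 °C, relative to a peptide-free control. Human and rat enzymes were present at 2 nM and 3 nM final, respectively, in 50 mM Tris-HCl pH 7.4, 150 mM NaCl, 10 mM MgCl2, 1 mM CaCl2. Ki derives from fitted IC50 via Cheng–Prusoff.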

porcine pepsin = target: T2, porcine pepsin (Sus scrofa, UniProt P00791); test: Peptide stability in simulated gastric fluid (SGF); assay type: in vitro ADME
T2 construct: 0.32 g of porcine pepsin (Sigma-Aldrich, P7125) was dissolved under gentle agitation; purchased Sigma-Aldrich P7125
T2 sequence (P00791 60-385): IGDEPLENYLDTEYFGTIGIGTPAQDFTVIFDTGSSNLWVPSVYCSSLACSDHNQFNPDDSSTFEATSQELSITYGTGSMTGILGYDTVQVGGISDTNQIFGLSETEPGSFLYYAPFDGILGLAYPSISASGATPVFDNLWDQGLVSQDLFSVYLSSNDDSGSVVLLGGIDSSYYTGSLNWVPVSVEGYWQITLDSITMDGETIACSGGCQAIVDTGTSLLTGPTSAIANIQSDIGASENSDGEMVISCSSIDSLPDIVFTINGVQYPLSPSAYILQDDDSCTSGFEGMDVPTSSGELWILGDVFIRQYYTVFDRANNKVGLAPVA
Method in brief: (§1)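 Peptide from a 1 mM DMSO stock was added to fluid pre-warmed at 37 °C. SGF was pH 1.2 NaCl with porcine pepsin (0.32 g per 100 ml), and SIF was pH 6.8 potassium phosphate with porcine pancreatin (1 g per 100 ml). Supernatant peptide was quantified by LC–MS, with residual expressed as T1/T0.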

[1] = Peptide stability in simulated intestinal fluid (SIF); assay type: in vitro ADME, porcine; conditions: simulated gi fluid; 8 h, 37 °C, pH 6.8; read-out: Proteolytic stability: SIF (8 h) % remaining
Method in brief: as §1

porcine pancreatin = test: as above; assay type: in vitro ADME; conditions: after 8 h vs 0 h (TIC)
Method in brief: as §1

[2] = Metabolic stability in rat liver microsomes (RLMs); conditions: for microsomal CLint / half-life: rat, microsomes

SMILES: O=C1C[C@H]2CCCN2C(=O)[C@H](Cc2ccccc2)NC(=O)[C@@H](NC(=O)c2ccc(Cl)s2)CCCSC/C=C/CSCCN1 [compound 36]
- Ki (rat α-thrombin; average of R1-R3, read-out: Ki Average, rat alpha thrombin inhibition): 0.0271 µM
- Slope normalized to DMSO (proteolytic substrate cleavage over time) (rat α-thrombin; peptide 1.02E-03 uM): 95.7 and 93.2 and 92.5
- Slope normalized to DMSO (proteolytic substrate cleavage over time) (rat α-thrombin; peptide 1.04E+00 uM): 20.0 and 16.8 and 13.2
- Slope normalized to DMSO (proteolytic substrate cleavage over time) (rat α-thrombin; peptide 1.27E-04 uM): 100.2 (2×) and 94.0
- Slope normalized to DMSO (proteolytic substrate cleavage over time) (rat α-thrombin; peptide 1.30E-01 uM): 40.2 and 33.7 and 29.3
- Slope normalized to DMSO (proteolytic substrate cleavage over time) (rat α-thrombin; peptide 1.59E-05 uM): 102.8 and 104.6 and 99.0
- Slope normalized to DMSO (proteolytic substrate cleavage over time) (rat α-thrombin; peptide 1.63E-02 uM): 70.9 and 69.0 and 58.5
- Slope normalized to DMSO (proteolytic substrate cleavage over time) (rat α-thrombin; peptide 1.67E+01 uM): 6.7 and 7.6 and -3.8
- Slope normalized to DMSO (proteolytic substrate cleavage over time) (rat α-thrombin; peptide 2.03E-03 uM): 92.4 and 90.4 and 105.7
- Slope normalized to DMSO (proteolytic substrate cleavage over time) (rat α-thrombin; peptide 2.08E+00 uM): 14.7 and 13.1 and 8.2
- Slope normalized to DMSO (proteolytic substrate cleavage over time) (rat α-thrombin; peptide 2.54E-04 uM): 98.1 and 97.6 and 92.4
- Slope normalized to DMSO (proteolytic substrate cleavage over time) (rat α-thrombin; peptide 2.60E-01 uM): 33.9 and 26.8 and 32.5
- Slope normalized to DMSO (proteolytic substrate cleavage over time) (rat α-thrombin; peptide 3.18E-05 uM): 102.6 and 99.4 and 97.6
- Slope normalized to DMSO (proteolytic substrate cleavage over time) (rat α-thrombin; peptide 3.26E-02 uM): 65.2 and 58.8 and 53.9
- Slope normalized to DMSO (proteolytic substrate cleavage over time) (rat α-thrombin; peptide 3.33E+01 uM): 6.5 and 6.8 and 3.9
- Slope normalized to DMSO (proteolytic substrate cleavage over time) (rat α-thrombin; peptide 4.07E-03 uM): 89.6 and 87.8 and 79.0
- Slope normalized to DMSO (proteolytic substrate cleavage over time) (rat α-thrombin; peptide 4.17E+00 uM): 10.5 and 9.5 and 2.3
- Slope normalized to DMSO (proteolytic substrate cleavage over time) (rat α-thrombin; peptide 5.09E-04 uM): 97.9 and 94.9 and 105.4
- Slope normalized to DMSO (proteolytic substrate cleavage over time) (rat α-thrombin; peptide 5.21E-01 uM): 40.1 and 33.7 and 38.8
- Slope normalized to DMSO (proteolytic substrate cleavage over time) (rat α-thrombin; peptide 6.36E-05 uM): 100.2 and 99.0 and 96.8
- Slope normalized to DMSO (proteolytic substrate cleavage over time) (rat α-thrombin; peptide 6.51E-02 uM): 49.2 and 44.9 and 38.0
- Slope normalized to DMSO (proteolytic substrate cleavage over time) (rat α-thrombin; peptide 6.67E+01 uM): 8.1 and 8.3 and 4.7
- Slope normalized to DMSO (proteolytic substrate cleavage over time) (rat α-thrombin; peptide 7.95E-06 uM): 104.1 and 101.6 and 100.1
- Slope normalized to DMSO (proteolytic substrate cleavage over time) (rat α-thrombin; peptide 8.14E-03 uM): 83.6 and 78.8 and 74.4
- Slope normalized to DMSO (proteolytic substrate cleavage over time) (rat α-thrombin; peptide 8.33E+00 uM): 19.0 and 7.9 and 5.9
- IC50 (rat α-thrombin; single replicates R1-R3, read-out: IC50, rat alpha thrombin inhibition): 0.0607 µM and 0.0432 µM and 0.043 µM
- Ki (rat α-thrombin; single replicates R1-R3, read-out: Ki, rat alpha thrombin inhibition): 33.6 nM (2×) and 23.9 nM (2×) and 23.8 nM (2×)
- SGF stability, Residual peptide Average (porcine pepsin; after 8 h vs 0 h (TIC), average of R1-R3): 87.04
- SGF stability, Residual peptide (porcine pepsin; after 8 h vs 0 h (TIC), single replicates R1-R3): 86.50 and 93.65 and 80.97
- remaining at 8 h (porcine pepsin; simulated gi fluid, 8 h, 37 °C, pH 1.2, read-out: Proteolytic stability: SGF (8 h) % remaining): 87 ± 6%
- remaining at 8 h [1]: 42 ± 5%
- SIF stability, Residual peptide Average (porcine pancreatin; average of R1-R3): 42.16
- SIF stability, Residual peptide (porcine pancreatin; single replicates R1-R3): 44.45 and 36.26 and 45.77
- TIC value of compound, 0 min, R1 ([2]; rat liver microsomes, 0 min, replicate R1): 9960125
- TIC value of compound, 0 min, R3 ([2]; rat liver microsomes, 0 min, replicate R3): 9584351
- TIC value of compound, 5 min, R1 ([2]; rat liver microsomes, 5 min, replicate R1): 8960155
- TIC value of compound, 5 min, R3 ([2]; rat liver microsomes, 5 min, replicate R3): 9591941
- TIC value of compound, 15 min, R1 ([2]; rat liver microsomes, 15 min, replicate R1): 6029519
- TIC value of compound, 15 min, R3 ([2]; rat liver microsomes, 15 min, replicate R3): 6211335
- TIC value of compound, 30 min, R1 ([2]; rat liver microsomes, 30 min, replicate R1): 3459884
- TIC value of compound, 30 min, R3 ([2]; rat liver microsomes, 30 min, replicate R3): 2699618
- TIC value of compound, 60 min, R1 ([2]; rat liver microsomes, 60 min, replicate R1): 607530
- TIC value of compound, 60 min, R3 ([2]; rat liver microsomes, 60 min, replicate R3): 705245
- microsomal CLint ([2]; CL (ul/min/mg protein), R1, RLM CL, replicate R1, unrounded): 70.7 µL/min/mg
- microsomal CLint ([2]; CL (ul/min/mg protein), R2, RLM CL, replicate R2, unrounded): 61.9 µL/min/mg
- microsomal CLint ([2]; CL (ul/min/mg protein), R3, RLM CL, replicate R3, unrounded): 69.3 µL/min/mg
- half-life ([2]; Half Life (min), R1, RLM metabolic stability, replicate R1): 19.6 min
- half-life ([2]; Half Life (min), R2, RLM metabolic stability, replicate R2): 22.4 min
- half-life ([2]; Half Life (min), R3, RLM metabolic stability, replicate R3): 20 min
- half-life ([2]; Metabolic stability: Half life T1/2 (min), RLMs, mean and SD, three measurements): 21 ± 1 min
- microsomal CLint ([2]; Metabolic stability: RLM CL (ul/min/mg), RLMs, mean and SD, three measurements): 67 ± 4 µL/min/mg
- microsomal CLint ([2]; RLM CL, Average, average of R1-R3): 67.3 µL/min/mg
- microsomal CLint ([2]; RLM CL, R1, RLM CL, replicate R1, summary block): 70.7 µL/min/mg
- microsomal CLint ([2]; RLM CL, R2, RLM CL, replicate R2, summary block): 61.9 µL/min/mg
- microsomal CLint ([2]; RLM CL, R3, RLM CL, replicate R3, summary block): 69.3 µL/min/mg
